The nature of data set [1]: Stability of aloesin in plasma samples (LC-MS/MS quality control samples). It is filed as in vitro ADME, rat. The protocol: Prepare 3 concentrations of aloesin quality control samples (500 ng·mL^−1, 50 ng·mL^−1, 3 ng·mL^−1) with blank plasma, and examine the stability under the following conditions.
(1) After the sample is processed, it is placed in the autosampler for 8 hours, and then the sample is injected for analysis;
(2) The sample is processed after 3 freeze-thaw cycles, and the sample is injected for analysis;
(3) The sample is placed at room temperature for 4 hours and then comes out, and the sample is injected for analysis;
(4) The sample is processed after the sample is stored at −20° C. for 15 days, and then the sample is injected for analysis.
The stability inspection is qualified.

For data set [2] the following is noted: toxicological studies, no details given; cited from earlier work.

The text below walks through data of patent US12105070B2, “LC-MS/MS method for measurement of Aloesin in rat plasma” (HAINAN MEDICAL UNIVERSITY, priority 2020, dated 2024).

Structures are written as SMILES.

As for `CC(=O)Cc1cc(=O)c2c(C)cc(O)c([C@@H]3O[C@H](CO)[C@@H](O)[C@H](O)[C@H]3O)c2o1` [aloesin], the Accuracy in data set [1] (3 ng·ml^-1 in plasma, 3 freeze-thaw cycles) was determined as 109.60%; in data set [1] (3 ng·ml^-1 in plasma, processed sample in autosampler 8 h), 109.20%; in data set [1] (3 ng·ml^-1 in plasma, room temperature for 4 hours), 106.18%; in data set [1] (3 ng·ml^-1 in plasma, stored at -20° C. for 15 days), 108.00%; in data set [1] (50 ng·ml^-1 in plasma, 3 freeze-thaw cycles) it was 109.40%; in data set [1] (50 ng·ml^-1 in plasma, processed sample in autosampler 8 h), 108.20%. Further, the Accuracy in data set [1] (50 ng·ml^-1 in plasma, room temperature for 4 hours) is recorded as 105.20%; in data set [1] (50 ng·ml^-1 in plasma, stored at -20° C. for 15 days) it was 100.14%; in data set [1] (500 ng·ml^-1 in plasma, 3 freeze-thaw cycles), 105.20%; in data set [1] (500 ng·ml^-1 in plasma, processed sample in autosampler 8 h), 102.60%; in data set [1] (500 ng·ml^-1 in plasma, room temperature for 4 hours) it was 101.80%; in data set [1] (500 ng·ml^-1 in plasma, stored at -20° C. for 15 days), 94.66%. Besides, the toxic side effects entry in data set [2] is “basically no toxic side effects”.
